Test results from ChEMBL document CHEMBL1133359, “New fluorogenic substrate for the first continuous steroid sulfatase assay” (Bioorg Med Chem Lett, 2000).

T1: Steryl-sulfatase (Homo sapiens) (UniProt P08842)
T1 sequence (whole entry): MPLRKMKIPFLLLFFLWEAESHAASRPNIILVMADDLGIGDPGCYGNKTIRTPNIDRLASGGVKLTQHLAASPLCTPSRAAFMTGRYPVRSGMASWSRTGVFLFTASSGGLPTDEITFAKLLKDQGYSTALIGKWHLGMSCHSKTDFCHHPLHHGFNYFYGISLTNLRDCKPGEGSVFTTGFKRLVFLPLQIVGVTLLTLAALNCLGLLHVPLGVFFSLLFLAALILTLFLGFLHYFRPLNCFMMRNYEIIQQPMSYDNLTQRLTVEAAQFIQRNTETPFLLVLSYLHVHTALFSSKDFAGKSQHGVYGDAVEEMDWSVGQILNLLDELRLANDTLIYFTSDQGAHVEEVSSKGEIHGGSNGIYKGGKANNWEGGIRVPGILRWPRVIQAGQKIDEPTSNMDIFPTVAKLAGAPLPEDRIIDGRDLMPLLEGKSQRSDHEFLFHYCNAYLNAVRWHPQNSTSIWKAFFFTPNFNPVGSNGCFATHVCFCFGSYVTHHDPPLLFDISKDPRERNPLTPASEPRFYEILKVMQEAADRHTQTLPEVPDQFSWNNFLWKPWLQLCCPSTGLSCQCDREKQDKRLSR

B1: Steryl-sulfatase (Homo sapiens), P08842 (protein)
chain: T1 sequence (whole entry)

What was measured:
[1] = target: T1, Steryl-sulfatase (Homo sapiens); experiment: Inhibitory potency against recombinant human steroid sulfatase relative to compound 3 = 1
[2] = target: T1, Steryl-sulfatase (Homo sapiens); experiment: kcat value was determined
[3] = target: T1, Steryl-sulfatase (Homo sapiens)
Description: Tested for relative inhibitory potency against recombinant human steroid sulfatase

[4] = compound: C[C@]12CC[C@@H]3c4ccc(OS(N)(=O)=O)cc4CC[C@H]3[C@@H]1CCC2=O; experiment: (§1) Tested for inhibitory potency against recombinant human steroid sulfatase
[5] = compound: Cc1cc(=O)oc2cc(OS(N)(=O)=O)ccc12; experiment: as §1
[6] = compound: O=c1oc2cc(OS(=O)(=O)O)ccc2c2ccccc12; experiment: as §1

| Molecule | rIC50 [1] | further results |
| --- | --- | --- |
| Cc1cc(=O)oc2cc(OS(N)(=O)=O)ccc12 | 30 |  |
| NS(=O)(=O)Oc1ccc2c(c1)oc(=O)c1c3ccccc3oc21 | 5 |  |
| NS(=O)(=O)Oc1ccc2c(c1)oc(=O)c1c3ccc(O)cc3oc21 | 3.5 |  |
| NS(=O)(=O)Oc1ccc2c(c1)oc1c3ccccc3oc(=O)c21 | > 160 |  |
| NS(=O)(=O)Oc1ccc2cc(-c3nc4ccccc4s3)c(=O)oc2c1 | > 250 |  |
| NS(=O)(=O)Oc1ccc2c(c1)oc(=O)c1ccccc12 | 3 |  |
| Cc1c(-c2ccccc2)c(=O)oc2ccc(OS(N)(=O)=O)cc12 | > 250 |  |
| O=c1oc2cc(OS(=O)(=O)O)ccc2c2ccccc12 |  | k cat [2]: 0.24 s⁻¹ |
| C[C@]12CC[C@@H]3c4ccc(OS(N)(=O)=O)cc4CC[C@H]3[C@@H]1CCC2=O |  | rIC50 [3]: 1 |
| NS(=O)(=O)Oc1ccc2cc(-c3ccccc3)c(=O)oc2c1 | 48 |  |
| Cc1c(-c2ccccc2)c(=O)oc2cc(OS(N)(=O)=O)ccc12 | 11 |  |
| B1 |  | Km [4]: 95 µM; Km [5]: 275 µM; Km [6]: 22.5 µM |
